Data as given in the supplement of paper PMC8967900.

Tests used:
Test in all cases: selective drug sensitivity score (sDSS, relative to normal bone marrow) (sDSS (score)); higher = more potent and effective on the cell line relative to normal bone marrow cells
Settings in all cases: 72 h
[1] = tested on: P30-OHKUBO
[2] = tested on: REH
[3] = tested on: RPMI-8402
[4] = tested on: RCH-ACV
[5] = tested on: TANOUE
[6] = tested on: ALL-PO
[7] = tested on: PEER
[8] = tested on: DND-41
[9] = tested on: MHH-CALL-3
[10] = tested on: SUP-B15
[11] = tested on: COG-LL-402h
[12] = tested on: NALM-16
[13] = tested on: TMD5
[14] = tested on: CCRF-HSB2
[15] = tested on: MOLT-16
[16] = tested on: COG-LL-355h
[17] = tested on: COG-LL-394h
[18] = tested on: MOLT-4
[19] = tested on: KASUMI-9
[20] = tested on: SEM cells
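Note: ALL cell lines in 384-well plates, five doses spanning 10,000-fold, each plate scaled between vehicle and 100 µmol/L benzalkonium chloride controls, sDSS an adapted area-under-curve metric.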

COc1cc2ncnc(Oc3cccc(NC(=O)Nc4cc(C(C)(C)C(F)(F)F)on4)c3)c2cc1OC (top concentration 10000 nM)
selective drug sensitivity score [1]: 3.2
selective drug sensitivity score [2]: 5
selective drug sensitivity score [3]: 4.7
selective drug sensitivity score [4]: 13.9
selective drug sensitivity score [5]: 0
selective drug sensitivity score [6]: 11.5
selective drug sensitivity score [7]: 17.8
selective drug sensitivity score [8]: 0
selective drug sensitivity score [9]: 0
selective drug sensitivity score [10]: 28.4
selective drug sensitivity score [11]: 0.3
selective drug sensitivity score [12]: 0
selective drug sensitivity score [13]: 15.7
selective drug sensitivity score [14]: 23.2
selective drug sensitivity score [15]: 2.5
selective drug sensitivity score [16]: 4.9
selective drug sensitivity score [17]: 3.9
selective drug sensitivity score [18]: 0
selective drug sensitivity score [19]: 7.5
selective drug sensitivity score [20]: 14.5

S=C(NCc1ccc2c(c1)OCO2)N1CCN(c2ncnc3c2oc2ccccc23)CC1 [Amuvatinib] (top concentration 10000 nM)
selective drug sensitivity score [1]: 4.26
selective drug sensitivity score [2]: 5.56
selective drug sensitivity score [3]: 10.9
selective drug sensitivity score [4]: 9.26
selective drug sensitivity score [5]: 6.16
selective drug sensitivity score [6]: 1.16
selective drug sensitivity score [7]: 9.36
selective drug sensitivity score [8]: 4.16
selective drug sensitivity score [9]: 5.06
selective drug sensitivity score [10]: 5.46
selective drug sensitivity score [11]: 2.36
selective drug sensitivity score [12]: 0.86
selective drug sensitivity score [13]: 4.16
selective drug sensitivity score [14]: 3.96
selective drug sensitivity score [15]: 8.36
selective drug sensitivity score [16]: 2.06
selective drug sensitivity score [17]: 7.36
selective drug sensitivity score [18]: 4.66
selective drug sensitivity score [19]: 1.26
selective drug sensitivity score [20]: 2.26

O=C(c1ccc(F)c(F)c1Nc1ccc(I)cc1F)N1CC(O)([C@@H]2CCCCN2)C1 [Cobimetinib] (top concentration 1000 nM)
selective drug sensitivity score [1]: -3.68
selective drug sensitivity score [2]: -3.68
selective drug sensitivity score [3]: -3.68
selective drug sensitivity score [4]: -3.68
selective drug sensitivity score [5]: -3.68
selective drug sensitivity score [6]: 0.92
selective drug sensitivity score [7]: -2.78
selective drug sensitivity score [8]: 2.62
selective drug sensitivity score [9]: 6.22
selective drug sensitivity score [10]: 6.62
selective drug sensitivity score [11]: -0.98
selective drug sensitivity score [12]: -1.38
selective drug sensitivity score [13]: 1.32
selective drug sensitivity score [14]: -0.28
selective drug sensitivity score [15]: -3.68
selective drug sensitivity score [16]: 5.02
selective drug sensitivity score [17]: -2.48
selective drug sensitivity score [18]: -3.68
selective drug sensitivity score [19]: -2.38
selective drug sensitivity score [20]: -2.48

NC(=O)Nc1cc(-c2cccc(F)c2)sc1C(=O)N[C@H]1CCCNC1 [AZD7762] (top concentration 1000 nM)
selective drug sensitivity score [1]: 3.3
selective drug sensitivity score [2]: -1.1
selective drug sensitivity score [3]: 0
selective drug sensitivity score [4]: 7.9
selective drug sensitivity score [5]: -5
selective drug sensitivity score [6]: 9.2
selective drug sensitivity score [7]: -0.7
selective drug sensitivity score [8]: 2.3
selective drug sensitivity score [9]: 1.9
selective drug sensitivity score [10]: -0.4
selective drug sensitivity score [11]: 3.3
selective drug sensitivity score [12]: 0.5
selective drug sensitivity score [13]: -1.1
selective drug sensitivity score [14]: 8.2
selective drug sensitivity score [15]: -1.5
selective drug sensitivity score [16]: -0.1
selective drug sensitivity score [17]: -3.5
selective drug sensitivity score [18]: -1.3
selective drug sensitivity score [19]: 4.1
selective drug sensitivity score [20]: 19

Cc1ccc(NC(=O)c2ccc(CN3CCN(C)CC3)cc2)cc1Nc1nccc(-c2cccnc2)n1 [Imatinib] (top concentration 10000 nM)
selective drug sensitivity score [1]: 0.06
selective drug sensitivity score [2]: 0.56
selective drug sensitivity score [3]: 1.46
selective drug sensitivity score [4]: 2.16
selective drug sensitivity score [5]: -0.44
selective drug sensitivity score [6]: 1.86
selective drug sensitivity score [7]: 12
selective drug sensitivity score [8]: 0.26
selective drug sensitivity score [9]: -0.44
selective drug sensitivity score [10]: 17.4
selective drug sensitivity score [11]: -0.44
selective drug sensitivity score [12]: -0.44
selective drug sensitivity score [13]: 8.96
selective drug sensitivity score [14]: 7.96
selective drug sensitivity score [15]: 0.46
selective drug sensitivity score [16]: -0.44
selective drug sensitivity score [17]: 3.06
selective drug sensitivity score [18]: -0.34
selective drug sensitivity score [19]: -0.44
selective drug sensitivity score [20]: 0.06

Nc1nc2[nH]cc(CCc3ccc(C(=O)N[C@@H](CCC(=O)O)C(=O)O)cc3)c2c(=O)[nH]1 [Pemetrexed] (top concentration 10000 nM)
selective drug sensitivity score [1]: 26.4
selective drug sensitivity score [2]: 22.1
selective drug sensitivity score [3]: 24.8
selective drug sensitivity score [4]: 28.8
selective drug sensitivity score [5]: -0.72
selective drug sensitivity score [6]: 30.9
selective drug sensitivity score [7]: 15.5
selective drug sensitivity score [8]: 18.6
selective drug sensitivity score [9]: 13.5
selective drug sensitivity score [10]: 28
selective drug sensitivity score [11]: 7.98
selective drug sensitivity score [12]: 7.38
selective drug sensitivity score [13]: -0.72
selective drug sensitivity score [14]: 28.2
selective drug sensitivity score [15]: 28.4
selective drug sensitivity score [16]: 4.28
selective drug sensitivity score [17]: 1.58
selective drug sensitivity score [18]: 21.5
selective drug sensitivity score [19]: 18.6
selective drug sensitivity score [20]: 25.6

CO[C@H]1CC[C@H](N2C(=O)CNc3ncc(-c4ccc(C(C)(C)O)nc4)nc32)CC1 [CC-223] (top concentration 10000 nM)
selective drug sensitivity score [1]: 3.12
selective drug sensitivity score [2]: 4.22
selective drug sensitivity score [3]: 0.62
selective drug sensitivity score [4]: 9.62
selective drug sensitivity score [5]: -3.88
selective drug sensitivity score [6]: 0.22
selective drug sensitivity score [7]: 1.02
selective drug sensitivity score [8]: 1.32
selective drug sensitivity score [9]: 8.82
selective drug sensitivity score [10]: -1.38
selective drug sensitivity score [11]: 2.92
selective drug sensitivity score [12]: 0.72
selective drug sensitivity score [13]: 6.12
selective drug sensitivity score [14]: 2.62
selective drug sensitivity score [15]: 4.12
selective drug sensitivity score [16]: 1.12
selective drug sensitivity score [17]: -2.28
selective drug sensitivity score [18]: -0.48
selective drug sensitivity score [19]: 5.12
selective drug sensitivity score [20]: 0.72

CC(=O)N(O)CCCCCNC(=O)CCC(=O)N(O)CCCCCNC(=O)CCC(=O)N(O)CCCCCN [Deferoxamine] (top concentration 10000 nM)
selective drug sensitivity score [1]: 0.76
selective drug sensitivity score [2]: 2.46
selective drug sensitivity score [3]: 2.06
selective drug sensitivity score [4]: 3.86
selective drug sensitivity score [5]: 3.46
selective drug sensitivity score [6]: 2.56
selective drug sensitivity score [7]: 2.16
selective drug sensitivity score [8]: 5.16
selective drug sensitivity score [9]: -0.54
selective drug sensitivity score [10]: 4.76
selective drug sensitivity score [11]: 5.76
selective drug sensitivity score [12]: 4.66
selective drug sensitivity score [13]: -0.24
selective drug sensitivity score [14]: 4.86
selective drug sensitivity score [15]: 6.26
selective drug sensitivity score [16]: 1.46
selective drug sensitivity score [17]: 0.76
selective drug sensitivity score [18]: 3.56
selective drug sensitivity score [19]: 1.16
selective drug sensitivity score [20]: 2.66
